Results published in ChEMBL document CHEMBL1201862, “PubChem BioAssay data set” (2004).
Each block holds one compound with its values, some of them ahead of it. Calls of active or inactive are those of the source. For most assays here, no stated cut-off is given here; in the data, actives have a measured IC50 and inactives only a lower limit.

Experiments:
[1] = molecular target: T1, Apoptotic protease-activating factor 1 (Homo sapiens, UniProt O14727); experiment: activation of Apaf-1 mediated apoptosis – fluorescent, uHTS hits, dose response (AID 588554); format: functional
T1 sequence (O14727 whole entry): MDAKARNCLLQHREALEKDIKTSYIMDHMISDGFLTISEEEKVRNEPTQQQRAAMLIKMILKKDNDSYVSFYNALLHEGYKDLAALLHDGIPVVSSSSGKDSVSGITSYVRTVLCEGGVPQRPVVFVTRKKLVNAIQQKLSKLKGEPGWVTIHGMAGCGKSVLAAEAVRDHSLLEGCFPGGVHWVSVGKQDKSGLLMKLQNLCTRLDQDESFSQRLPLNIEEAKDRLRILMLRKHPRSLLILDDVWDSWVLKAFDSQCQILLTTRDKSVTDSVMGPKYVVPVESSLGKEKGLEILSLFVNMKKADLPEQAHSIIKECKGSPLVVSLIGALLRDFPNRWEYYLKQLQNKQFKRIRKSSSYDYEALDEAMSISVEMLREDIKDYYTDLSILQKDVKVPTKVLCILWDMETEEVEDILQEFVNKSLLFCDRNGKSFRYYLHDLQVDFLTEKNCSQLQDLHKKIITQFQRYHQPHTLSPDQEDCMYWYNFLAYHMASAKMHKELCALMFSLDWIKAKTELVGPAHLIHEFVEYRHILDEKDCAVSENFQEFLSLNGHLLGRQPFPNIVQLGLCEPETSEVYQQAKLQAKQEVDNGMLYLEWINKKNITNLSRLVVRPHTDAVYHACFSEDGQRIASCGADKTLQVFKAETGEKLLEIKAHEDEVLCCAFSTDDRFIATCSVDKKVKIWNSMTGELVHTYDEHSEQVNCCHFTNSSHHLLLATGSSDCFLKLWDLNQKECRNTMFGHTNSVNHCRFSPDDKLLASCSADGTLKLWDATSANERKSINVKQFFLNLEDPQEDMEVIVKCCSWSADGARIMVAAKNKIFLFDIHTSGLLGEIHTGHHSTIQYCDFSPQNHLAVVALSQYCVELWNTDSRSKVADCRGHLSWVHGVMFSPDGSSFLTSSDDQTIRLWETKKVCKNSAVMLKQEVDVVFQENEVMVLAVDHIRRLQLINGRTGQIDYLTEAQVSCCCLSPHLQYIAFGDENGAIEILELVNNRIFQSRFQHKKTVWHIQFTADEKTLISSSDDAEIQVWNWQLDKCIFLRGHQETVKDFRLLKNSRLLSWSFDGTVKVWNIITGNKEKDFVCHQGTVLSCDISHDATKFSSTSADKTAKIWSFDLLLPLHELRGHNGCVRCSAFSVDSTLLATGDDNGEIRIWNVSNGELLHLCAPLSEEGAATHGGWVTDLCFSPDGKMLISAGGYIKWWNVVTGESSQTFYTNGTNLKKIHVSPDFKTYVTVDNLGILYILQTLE

[2] = molecular target: DNA dC->dU-editing enzyme APOBEC-3A (Homo sapiens, UniProt P31941); experiment: APOBEC3A DNA deaminase inhibitors, dose response, biochemical (AID 504722); format: functional
[3] = molecular target: DNA dC->dU-editing enzyme APOBEC-3G (Homo sapiens, UniProt Q9HC16); experiment: Dose Response confirmation of small molecule APOBEC3G DNA Deaminase Inhibitors via a fluorescence-based single-stranded DNA deaminase assay. [Related pubchem assays (depositor defined):AID493012, AID493028]; format: functional
[4] = molecular target: T2, Carboxy-terminal domain RNA polymerase II polypeptide A small phosphatase 1 (Homo sapiens, UniProt Q9GZU7); experiment: inhibitors of CTDSP1, concentration-response testing, biochemical assay, absorbance-based, actives from ultra-high-throughput screening (AID 540297); format: functional
T2 sequence (Q9GZU7 whole entry): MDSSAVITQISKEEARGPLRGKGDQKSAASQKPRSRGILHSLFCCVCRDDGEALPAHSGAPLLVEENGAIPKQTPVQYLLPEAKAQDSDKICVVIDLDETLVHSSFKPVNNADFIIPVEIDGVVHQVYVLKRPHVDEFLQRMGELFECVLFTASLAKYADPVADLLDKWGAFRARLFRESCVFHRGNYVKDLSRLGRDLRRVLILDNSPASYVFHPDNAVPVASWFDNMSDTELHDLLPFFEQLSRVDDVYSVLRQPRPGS

[5] = molecular target: Beta-adrenergic receptor kinase 1 (Homo sapiens, UniProt P25098); experiment: aptamer displacement from bead-bound GRK2 – biochemical, cherry pick 1, bead flow cytometry, dose response (AID 504500)
Phospholipase D1 = Phospholipase D1 (Homo sapiens, UniProt Q13393); experiment: PLD1 inhibitor potency in cells, dose response (AID 602151); format: functional;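 further: cellular PLD1 assay in Calu-1 cells stimulated with PMA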
Phospholipase D2 = Phospholipase D2 (Homo sapiens, UniProt O14939); experiment: PLD2 inhibitor potency in cells, dose response (AID 602147); format: functional;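 further: cellular assay in HEK293 cells overexpressing GFP-tagged PLD2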
[6] = molecular target: T3, Sentrin-specific protease 6 (Homo sapiens, UniProt Q9GZR1); experiment: SENP6 protease inhibitors, SAR follow-up, biochemical, luminescence, set 2 (AID 588598); format: functional
T3 sequence (Q9GZR1 whole entry): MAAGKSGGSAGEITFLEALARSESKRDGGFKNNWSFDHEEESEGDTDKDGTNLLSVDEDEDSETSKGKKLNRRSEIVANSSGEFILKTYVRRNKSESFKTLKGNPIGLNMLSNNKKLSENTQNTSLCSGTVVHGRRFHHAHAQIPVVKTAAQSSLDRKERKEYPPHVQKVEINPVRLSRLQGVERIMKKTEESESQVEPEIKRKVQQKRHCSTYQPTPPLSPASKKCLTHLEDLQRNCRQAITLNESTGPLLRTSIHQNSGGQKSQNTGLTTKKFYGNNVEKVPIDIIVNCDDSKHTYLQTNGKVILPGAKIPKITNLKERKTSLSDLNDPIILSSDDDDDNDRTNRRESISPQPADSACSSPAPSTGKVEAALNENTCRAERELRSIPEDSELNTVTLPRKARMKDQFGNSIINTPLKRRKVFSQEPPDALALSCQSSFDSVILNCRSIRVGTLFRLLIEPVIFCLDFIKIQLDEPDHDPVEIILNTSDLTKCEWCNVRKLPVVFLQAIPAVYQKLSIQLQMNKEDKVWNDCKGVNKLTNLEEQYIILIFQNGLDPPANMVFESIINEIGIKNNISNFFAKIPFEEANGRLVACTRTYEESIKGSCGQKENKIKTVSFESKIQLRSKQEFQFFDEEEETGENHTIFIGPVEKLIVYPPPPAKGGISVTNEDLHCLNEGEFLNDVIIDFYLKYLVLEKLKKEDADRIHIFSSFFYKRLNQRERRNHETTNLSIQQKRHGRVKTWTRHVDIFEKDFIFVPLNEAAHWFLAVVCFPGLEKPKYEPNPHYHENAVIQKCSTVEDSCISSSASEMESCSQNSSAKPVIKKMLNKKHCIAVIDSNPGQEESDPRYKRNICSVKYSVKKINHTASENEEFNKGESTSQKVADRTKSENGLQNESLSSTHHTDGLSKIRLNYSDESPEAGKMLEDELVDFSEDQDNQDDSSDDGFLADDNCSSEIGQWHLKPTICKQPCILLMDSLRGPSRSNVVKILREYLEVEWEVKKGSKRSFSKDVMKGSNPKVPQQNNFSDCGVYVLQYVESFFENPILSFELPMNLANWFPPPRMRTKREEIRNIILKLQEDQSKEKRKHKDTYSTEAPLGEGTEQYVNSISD

[7] = molecular target: T4, Sentrin-specific protease 8 (Homo sapiens, UniProt Q96LD8); experiment: SENP8 protease inhibitors, SAR follow-up, biochemical, luminescence, set 2 (AID 588601); format: functional
T4 sequence (Q96LD8 whole entry): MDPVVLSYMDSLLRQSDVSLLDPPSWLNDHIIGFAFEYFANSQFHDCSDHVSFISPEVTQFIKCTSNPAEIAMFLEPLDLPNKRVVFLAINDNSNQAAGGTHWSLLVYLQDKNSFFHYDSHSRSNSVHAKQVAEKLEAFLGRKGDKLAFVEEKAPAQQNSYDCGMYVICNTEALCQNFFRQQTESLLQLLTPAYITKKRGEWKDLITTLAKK

[8] = molecular target: T5, Sentrin-specific protease 7 (Homo sapiens, UniProt Q9BQF6); experiment: SENP7 protease inhibitors, SAR follow-up, biochemical, luminescence, set 2 (AID 588600); format: functional
T5 sequence (Q9BQF6 whole entry): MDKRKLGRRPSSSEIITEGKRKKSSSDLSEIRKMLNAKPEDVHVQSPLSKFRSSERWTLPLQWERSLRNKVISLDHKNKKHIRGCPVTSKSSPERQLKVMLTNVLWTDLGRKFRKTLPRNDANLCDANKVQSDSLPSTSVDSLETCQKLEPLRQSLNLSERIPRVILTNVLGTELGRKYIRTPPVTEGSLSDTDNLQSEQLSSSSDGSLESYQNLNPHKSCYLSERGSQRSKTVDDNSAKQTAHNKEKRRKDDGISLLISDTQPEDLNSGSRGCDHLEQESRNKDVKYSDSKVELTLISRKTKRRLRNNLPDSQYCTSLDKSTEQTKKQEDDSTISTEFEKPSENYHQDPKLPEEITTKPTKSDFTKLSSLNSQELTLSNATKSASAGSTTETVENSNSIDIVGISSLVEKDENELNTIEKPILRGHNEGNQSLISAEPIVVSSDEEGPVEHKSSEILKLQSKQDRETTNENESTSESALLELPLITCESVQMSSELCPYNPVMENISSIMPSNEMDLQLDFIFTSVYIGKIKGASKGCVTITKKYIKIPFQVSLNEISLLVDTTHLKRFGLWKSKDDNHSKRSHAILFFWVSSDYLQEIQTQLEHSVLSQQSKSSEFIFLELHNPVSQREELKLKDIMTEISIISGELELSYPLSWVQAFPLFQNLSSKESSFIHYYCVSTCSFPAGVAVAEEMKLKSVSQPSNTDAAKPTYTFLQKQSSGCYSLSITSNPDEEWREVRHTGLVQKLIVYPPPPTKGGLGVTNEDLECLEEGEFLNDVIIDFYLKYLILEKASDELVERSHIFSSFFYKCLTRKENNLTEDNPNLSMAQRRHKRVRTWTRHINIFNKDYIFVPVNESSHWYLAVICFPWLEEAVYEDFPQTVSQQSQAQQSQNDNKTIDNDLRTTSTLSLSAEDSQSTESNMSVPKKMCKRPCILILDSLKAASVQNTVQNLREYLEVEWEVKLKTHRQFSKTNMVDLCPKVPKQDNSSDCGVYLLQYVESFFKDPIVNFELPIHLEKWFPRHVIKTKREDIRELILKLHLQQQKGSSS

Caspase-3 [9] = molecular target: T6, Caspase-3 (Homo sapiens, UniProt P42574); experiment: caspase-3 inhibitors as off-family protease, SAR follow-up, selectivity assay for SENP protease inhibitor project, biochemical, luminescence, set 2 (AID 588599); format: functional
T6 sequence (P42574 whole entry): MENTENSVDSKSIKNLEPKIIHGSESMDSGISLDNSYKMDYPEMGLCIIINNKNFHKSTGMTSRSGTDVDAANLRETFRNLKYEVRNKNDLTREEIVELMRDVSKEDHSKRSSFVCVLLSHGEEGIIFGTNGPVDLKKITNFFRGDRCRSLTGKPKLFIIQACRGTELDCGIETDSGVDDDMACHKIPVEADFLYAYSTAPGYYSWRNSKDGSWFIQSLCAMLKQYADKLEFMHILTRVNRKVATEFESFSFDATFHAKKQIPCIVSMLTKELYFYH

[10] = molecular target: T4, Sentrin-specific protease 8; experiment: SENP8 protease inhibitors, SAR follow-up, biochemical, luminescence (AID 504501); format: functional
[11] = molecular target: T5, Sentrin-specific protease 7; experiment: SENP7 protease inhibitors, SAR follow-up, biochemical, luminescence (AID 504497); format: functional
[12] = molecular target: T3, Sentrin-specific protease 6; experiment: SAR Analysis of small molecule inhibitors of Sentrin-specific protease 6 (SENP6) using a Luminescent assay. [Related pubchem assays (depositor defined):AID2582, AID2599]; format: functional
Caspase-3 [13] = molecular target: T6, Caspase-3; experiment: SAR Analysis of small molecule inhibitors of Sentrin-specific proteases (SENPs) using a Caspase-3 Selectivity assay. [Related pubchem assays (depositor defined):AID2540, AID2599, AID434973, AID489001]; format: functional
Candida albicans [14] = experiment: growth inhibition of azole-resistant C. albicans, dose response, CaCi-8 strain, Alamar Blue, dry powder, set 3 (AID 488905); format: functional, organism-based
Candida albicans [15] = experiment: reversal of fluconazole resistance in C. albicans, dose response, CaCi-2 strain, Alamar Blue, dry powder, set 3 (AID 488907); format: functional, organism-based

Sequence of DNA dC->dU-editing enzyme APOBEC-3A (P31941 whole entry): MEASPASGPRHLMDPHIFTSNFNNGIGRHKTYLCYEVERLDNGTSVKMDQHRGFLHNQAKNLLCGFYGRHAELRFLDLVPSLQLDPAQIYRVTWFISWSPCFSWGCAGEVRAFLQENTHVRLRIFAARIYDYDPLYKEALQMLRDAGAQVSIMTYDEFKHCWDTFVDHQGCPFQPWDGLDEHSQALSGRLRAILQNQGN
Sequence of Phospholipase D2 (O14939 whole entry): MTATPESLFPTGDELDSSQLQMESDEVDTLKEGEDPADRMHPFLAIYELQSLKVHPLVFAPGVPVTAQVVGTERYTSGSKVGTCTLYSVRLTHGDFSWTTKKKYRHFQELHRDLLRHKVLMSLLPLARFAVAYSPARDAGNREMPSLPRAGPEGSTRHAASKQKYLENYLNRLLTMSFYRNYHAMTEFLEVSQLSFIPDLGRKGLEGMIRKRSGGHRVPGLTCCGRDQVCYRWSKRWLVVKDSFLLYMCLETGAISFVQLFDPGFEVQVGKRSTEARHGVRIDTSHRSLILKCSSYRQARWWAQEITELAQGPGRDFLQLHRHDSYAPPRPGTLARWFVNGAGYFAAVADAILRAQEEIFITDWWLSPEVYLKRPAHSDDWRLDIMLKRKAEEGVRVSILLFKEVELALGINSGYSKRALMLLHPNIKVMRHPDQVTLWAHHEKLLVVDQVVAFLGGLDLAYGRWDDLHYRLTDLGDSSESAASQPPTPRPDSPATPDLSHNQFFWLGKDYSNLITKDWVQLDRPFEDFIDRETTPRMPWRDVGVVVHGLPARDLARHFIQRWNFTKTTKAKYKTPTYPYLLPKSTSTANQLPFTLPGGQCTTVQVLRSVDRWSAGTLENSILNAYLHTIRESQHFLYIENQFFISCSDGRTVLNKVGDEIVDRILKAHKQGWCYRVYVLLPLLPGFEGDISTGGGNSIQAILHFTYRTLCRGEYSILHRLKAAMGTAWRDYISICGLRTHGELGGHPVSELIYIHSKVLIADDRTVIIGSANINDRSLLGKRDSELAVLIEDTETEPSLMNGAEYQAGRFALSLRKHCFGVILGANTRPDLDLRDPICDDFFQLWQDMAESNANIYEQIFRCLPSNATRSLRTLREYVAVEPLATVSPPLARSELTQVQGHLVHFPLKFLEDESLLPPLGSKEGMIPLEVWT
Sequence of Phospholipase D1 (Q13393 whole entry): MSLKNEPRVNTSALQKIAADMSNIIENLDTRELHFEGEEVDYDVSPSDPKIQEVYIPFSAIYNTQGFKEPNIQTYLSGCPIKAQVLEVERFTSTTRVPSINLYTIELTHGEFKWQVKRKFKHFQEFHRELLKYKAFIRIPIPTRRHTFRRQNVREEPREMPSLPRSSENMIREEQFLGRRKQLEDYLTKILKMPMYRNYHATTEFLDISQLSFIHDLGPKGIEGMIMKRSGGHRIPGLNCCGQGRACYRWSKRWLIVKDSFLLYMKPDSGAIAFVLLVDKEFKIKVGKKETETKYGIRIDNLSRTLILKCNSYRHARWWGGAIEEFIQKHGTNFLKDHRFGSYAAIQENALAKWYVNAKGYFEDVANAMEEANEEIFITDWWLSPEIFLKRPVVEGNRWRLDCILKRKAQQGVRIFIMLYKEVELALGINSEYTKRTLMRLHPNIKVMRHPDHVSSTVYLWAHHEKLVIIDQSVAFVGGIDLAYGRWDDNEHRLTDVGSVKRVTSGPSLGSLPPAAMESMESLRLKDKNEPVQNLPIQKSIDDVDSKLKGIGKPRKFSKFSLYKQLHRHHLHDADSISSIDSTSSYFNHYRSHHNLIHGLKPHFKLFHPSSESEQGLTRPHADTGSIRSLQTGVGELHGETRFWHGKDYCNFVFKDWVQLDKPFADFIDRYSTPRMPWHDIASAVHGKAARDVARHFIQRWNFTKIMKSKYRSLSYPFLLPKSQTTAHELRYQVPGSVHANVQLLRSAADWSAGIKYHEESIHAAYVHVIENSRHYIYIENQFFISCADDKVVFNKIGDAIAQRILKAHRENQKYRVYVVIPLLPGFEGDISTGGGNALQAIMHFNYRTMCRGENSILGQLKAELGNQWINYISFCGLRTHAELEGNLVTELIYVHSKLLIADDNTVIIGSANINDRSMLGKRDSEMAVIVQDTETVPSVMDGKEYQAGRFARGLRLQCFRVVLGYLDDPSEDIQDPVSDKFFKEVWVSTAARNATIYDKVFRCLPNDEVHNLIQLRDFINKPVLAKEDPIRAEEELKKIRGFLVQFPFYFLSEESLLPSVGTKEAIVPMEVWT
Sequence of Beta-adrenergic receptor kinase 1 (P25098 whole entry): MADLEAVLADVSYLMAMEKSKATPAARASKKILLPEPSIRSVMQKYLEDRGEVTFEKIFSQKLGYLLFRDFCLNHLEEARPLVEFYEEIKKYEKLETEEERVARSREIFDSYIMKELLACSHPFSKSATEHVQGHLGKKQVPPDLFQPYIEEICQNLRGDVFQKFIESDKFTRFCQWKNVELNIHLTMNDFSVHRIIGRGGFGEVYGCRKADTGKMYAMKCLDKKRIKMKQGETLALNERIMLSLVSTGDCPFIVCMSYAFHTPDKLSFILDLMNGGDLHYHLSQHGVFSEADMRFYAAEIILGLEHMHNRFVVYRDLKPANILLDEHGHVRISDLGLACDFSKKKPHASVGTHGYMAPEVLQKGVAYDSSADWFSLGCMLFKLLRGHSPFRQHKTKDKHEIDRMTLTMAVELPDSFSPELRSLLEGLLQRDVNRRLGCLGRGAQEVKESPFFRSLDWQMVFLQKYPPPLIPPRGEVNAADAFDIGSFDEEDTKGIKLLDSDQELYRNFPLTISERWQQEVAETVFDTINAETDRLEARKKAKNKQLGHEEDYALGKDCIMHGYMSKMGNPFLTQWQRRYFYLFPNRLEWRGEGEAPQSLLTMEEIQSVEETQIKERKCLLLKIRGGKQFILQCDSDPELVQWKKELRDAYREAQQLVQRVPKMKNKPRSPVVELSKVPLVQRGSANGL
Sequence of DNA dC->dU-editing enzyme APOBEC-3G (Q9HC16 whole entry, the tested form may be a part): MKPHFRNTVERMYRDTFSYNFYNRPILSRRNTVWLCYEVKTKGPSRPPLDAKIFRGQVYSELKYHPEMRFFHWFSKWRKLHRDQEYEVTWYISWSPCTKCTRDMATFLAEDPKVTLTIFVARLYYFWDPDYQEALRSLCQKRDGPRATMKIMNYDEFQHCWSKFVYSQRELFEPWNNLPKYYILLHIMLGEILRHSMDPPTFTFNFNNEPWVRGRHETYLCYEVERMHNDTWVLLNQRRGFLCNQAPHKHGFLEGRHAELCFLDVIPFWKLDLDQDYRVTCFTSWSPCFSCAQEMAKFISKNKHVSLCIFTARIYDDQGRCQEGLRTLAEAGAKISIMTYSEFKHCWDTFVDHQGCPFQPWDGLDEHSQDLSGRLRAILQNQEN

Structure (SMILES): C=C(C)C(=O)Nc1cccc(C2=NOC3(C2)C[C@H](C(N)=O)N(C(=O)c2ccccc2)C3)c1 (some centres not stated)
- EC50 [1]: 17.1 µM (active)
- IC50 [2]: > 100 µM (inactive)
- IC50 [3]: 14.3 µM (active)
- IC50 [4]: 3.85 µM (active)
- EC50 [5]: 12.5 µM (inactive)

Structure (SMILES): C[C@H](CN1CCC2(CC1)C(=O)NCN2c1ccccc1)NC(=O)c1ccc(F)cc1
- IC50 (Phospholipase D1): 0.413 µM (active)
- IC50 (Phospholipase D2): 0.2 µM (active)

- IC50 [6]: > 99 µM (inactive)
- IC50 [8]: > 99 µM (inactive)
- IC50 (Caspase-3 [9]): > 99 µM (inactive)
Structure (SMILES): O=C(N/N=C/c1c[nH]c2ccccc12)c1[nH]c2ccc(Cl)cc2c1-c1ccccc1
- IC50 [7]: > 99 µM (inactive)

- IC50 [11]: > 99 µM (inactive)
- IC50 [12]: > 99 µM (inactive)
- IC50 (Caspase-3 [13]): > 99 µM (inactive)
Structure (SMILES): Cc1c(C(=O)Nc2nc3ccc(Cl)cc3s2)oc2ccccc12
- IC50 [10]: > 99 µM (inactive)

Structure (SMILES): O=C(c1ccc(Cl)cc1)N1CCN(c2ccc(C(F)(F)F)cn2)CC1
- AC50 (Candida albicans [14]): 130 µM (active)
- AC50 (Candida albicans [15]): 0.259 µM (active)
